Results taken from US20250313574A1, “SIALIC ACID DERIVATIVES AND METHODS OF USING SAME” (EISAI R&D MANAGEMENT CO., LTD., priority 2022, published 2025).

Legend:
[1] = target: Recombinant human CD33 protein (Homo sapiens (Human), UniProt P20138); experiment: CD33 competitive binding assay for HTS drug screen (fluorescent multivalent sialic acid probe)
Method in brief: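 Recombinant human CD33, coated overnight at 4° C from 10 μg/ml in pH 5.5 acetate, was preincubated briefly with compound. It was then exposed to a multivalent neutravidin/FITC/sialic acid analog A-375 probe (final 5 μM neutravidin, 15 μM A-375, 5 μM FITC) for 30 min at room temperature. After washing, bound FITC fluorescence was read.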

[2] = target: Recombinant Human Siglec-3/CD33 protein (His-CD33) (Homo sapiens (Human), UniProt P20138); experiment: Differential scanning fluorimetry (DSF) thermal shift assay; type: binding; conditions: difference in thermal melt of CD33 protein (0.5 μM) with 50 μM compound
Chain of Recombinant Human Siglec-3/CD33 protein (His-CD33) (P20138 18-259): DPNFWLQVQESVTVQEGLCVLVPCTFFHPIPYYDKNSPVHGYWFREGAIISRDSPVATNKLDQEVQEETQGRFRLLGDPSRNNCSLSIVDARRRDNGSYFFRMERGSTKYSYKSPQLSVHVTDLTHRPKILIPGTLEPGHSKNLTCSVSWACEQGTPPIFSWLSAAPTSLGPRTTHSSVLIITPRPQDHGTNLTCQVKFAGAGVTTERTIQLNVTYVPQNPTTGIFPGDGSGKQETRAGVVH

Chain of Recombinant human CD33 protein (P20138 18-259): as above

Compound	EC50 [1]	DSF (dTmD) [2]
Cc1cc(C(=O)NC[C@@H](O)[C@@H](O)[C@H]2C[C@@H](O)C[C@](CCN3CCOC[C@@]34CCN(C(=O)OC(C)(C)C)C4)(C(=O)O)O2)cc(C)c1O [A-202]	311 nM	5.46 °C
CC(=O)N[C@H]1[C@H]([C@H](O)[C@](C)(O)CNC(=O)c2cc(C)c(O)c(C)c2)O[C@@](CCN2CCOC[C@@]23CCN(C(=O)OC(C)(C)C)C3)(C(=O)O)C[C@@H]1O [A-204]	582 nM	5.0 °C
CC(=O)N[C@H]1[C@H]([C@H](O)[C@@](C)(O)CNC(=O)c2cc(C)c(O)c(C)c2)O[C@@](CCN2CCOC[C@@]23CCN(C(=O)OC(C)(C)C)C3)(C(=O)O)C[C@@H]1O [A-205]	1820 nM	3.5 °C
COC(=O)[C@@]1(CCN2CCOC[C@@]23CCN(C(=O)OC(C)(C)C)C3)CCC[C@H](C[C@H](O)CNC(=O)c2cc(C)c3[nH]ccc3c2)O1 [A-206, tert-butyl (S)-6-(2-((2S,6R)-6-((S)-2-hydroxy-3-(7-methyl-1H-indole-5-carboxamido)propyl)-2-(methoxycarbonyl)tetrahydro-2H-pyran-2-yl)ethyl)-9-oxa-2,6-diazaspiro[4.5]decane-2-carboxylate]	> 100000 nM	0.1 °C
COC(=O)[C@@]1(CCN2CCOC[C@@]23CCN(C(=O)OC(C)(C)C)C3)CCC[C@H](C[C@H](O)CNC(=O)c2cc(C)c3[nH]ccc3c2)O1 [A-207]	3750 nM	5.0 °C
CC(=O)NC1[C@H]([C@H](O)[C@H](O)CNC(=O)c2cc(C)c(O)c(C)c2)O[C@@](CC(=O)N2CCOC[C@]23CCN(C(=O)OC(C)(C)C)C3)(C(=O)O)C[C@@H]1O (stereo partly drawn) [A-220]	55 nM	9.3 °C
CC(=O)NC1[C@H]([C@H](O)[C@H](O)CNC(=O)c2cc(C)c(O)c(C)c2)O[C@@](CC(=O)N2CCOC[C@@]23CCN(C(=O)OC(C)(C)C)C3)(C(=O)O)C[C@@H]1O (stereo partly drawn) [A-221]	162 nM	7.0 °C
CC(=O)NC1[C@H]([C@H](O)[C@H](O)CNC(=O)c2cc(C)c(O)c(C)c2)O[C@@](CC(=O)N2CCOC[C@@]23CCN(C(=O)NC(C)(C)C)C3)(C(=O)O)C[C@@H]1O (stereo partly drawn) [A-223]	123 nM	8.9 °C
CC(=O)N[C@H]1[C@H]([C@H](O)[C@H](O)CNC(=O)c2cc(C)c(O)c(C)c2)O[C@@](C[C@H]2COC[C@]3(CCN(C(=O)OC(C)(C)C)C3)N2)(C(=O)O)C[C@@H]1O [A-224]	143 nM	8.9 °C
CC(=O)N[C@H]1[C@H]([C@H](O)[C@H](O)CNC(=O)c2cc(C)c(O)c(C)c2)O[C@@](C[C@@H]2COC[C@]3(CCN(C(=O)OC(C)(C)C)C3)N2)(C(=O)O)C[C@@H]1O [A-225]	552 nM	6.4 °C
CC(=O)N[C@H]1[C@H]([C@H](O)[C@H](O)CNC(=O)c2cc(C)c(O)c(C)c2)O[C@@](C[C@H]2COC[C@@]3(CCN(C(=O)OC(C)(C)C)C3)N2)(C(=O)O)C[C@@H]1O [A-227]	12 nM	14.6 °C
CC(=O)N[C@H]1[C@H]([C@H](O)[C@H](O)CNC(=O)c2cc(C)c(O)c(C)c2)O[C@@](C[C@H]2COC[C@@]3(CCN(C(=O)NC(C)(C)C)C3)N2)(C(=O)O)C[C@@H]1O [A-228]	14 nM	13.4 °C
CC(=O)N[C@H]1[C@H]([C@H](O)[C@H](O)CNC(=O)c2cc(C)c(O)c(C)c2)O[C@@](C[C@@H]2COC[C@]3(CCN(C(=O)OC(C)(C)C)C3)N2)(C(=O)O)C[C@@H]1O [A-229]	22 nM	13.0 °C
CC(=O)N[C@H]1[C@H]([C@H](O)[C@H](O)CNC(=O)c2cc(C)c(O)c(C)c2)O[C@@](C[C@@H]2COCC3(CCN(C(=O)OC(C)(C)C)CC3)N2)(C(=O)O)C[C@@H]1O [A-230]	10600 nM	1.1 °C
CC(=O)N[C@H]1[C@H]([C@H](O)[C@H](O)CNC(=O)c2cc(C)c(O)c(C)c2)O[C@@](C[C@H]2COCC3(CCN(C(=O)OC(C)(C)C)CC3)N2)(C(=O)O)C[C@@H]1O [A-231]	1410 nM	5.2 °C
COCc1cc2cc(C(=O)NCc3cccc(/C=C/C[C@]4(C(=O)O)C[C@H](O)[C@@H](NC(C)=O)[C@H]([C@H](O)[C@H](O)CNC(=O)c5cc(C)c(O)c(C)c5)O4)c3)ccc2[nH]1 [A-232]	74 nM	9.8 °C
CC(=O)N[C@H]1[C@H]([C@H](O)[C@H](O)CNC(=O)c2cc(C)c(O)c(C)c2)O[C@@](C/C=C/c2ccccc2CNC(=O)C2CCCOC2)(C(=O)O)C[C@@H]1O (stereo partly drawn) [A-233]	8990 nM	3.0 °C
CC(=O)N[C@H]1[C@H]([C@H](O)[C@H](O)CNC(=O)c2cc(C)c(O)c(C)c2)O[C@@](C/C=C/c2cccc(CNC(=O)c3ccc4[nH]ccc4c3)c2)(C(=O)O)C[C@@H]1O [A-234]	930 nM	4.6 °C

Compound	EC50 [1]	DSF (dTmD) [2]
CC(=O)N[C@H]1[C@H]([C@H](O)[C@H](O)CNC(=O)c2cc(C)c(O)c(C)c2)O[C@@](C/C=C/c2cccc(CNC(=O)c3ccc4cn[nH]c4c3)c2)(C(=O)O)C[C@@H]1O [A-235]	2090 nM	3.3 °C
CC(=O)N[C@H]1[C@H]([C@H](O)[C@H](O)CNC(=O)c2cc(C)c(O)c(C)c2)O[C@@](C/C=C/c2cccc(CNC(=O)c3ccc4[nH]cnc4c3)c2)(C(=O)O)C[C@@H]1O [A-236]	2010 nM	4.4 °C
CC(=O)N[C@H]1[C@H]([C@H](O)[C@H](O)CNC(=O)c2cc(C)c(O)c(C)c2)O[C@@](C/C=C/c2cccc(CNC(=O)c3ccc4[nH]nnc4c3)c2)(C(=O)O)C[C@@H]1O [A-237]	5030 nM	0.8 °C
CC(=O)N[C@H]1[C@H]([C@H](O)[C@H](O)CNC(=O)c2cc(C)c(O)c(C)c2)O[C@@](C/C=C/c2cccc(CNC(=O)c3ccc4[nH]c(C)c(C)c4c3)c2)(C(=O)O)C[C@@H]1O [A-238]	347 nM	9.2 °C
CC(=O)N[C@H]1[C@H]([C@H](O)[C@H](O)CNC(=O)c2cc(C)c(O)c(C)c2)O[C@@](C/C=C/c2cccc(CNC(=O)c3ccc(NS(C)(=O)=O)cc3)c2)(C(=O)O)C[C@@H]1O [A-239]	1120 nM	2.2 °C
CC(=O)N[C@H]1[C@H]([C@H](O)[C@H](O)CNC(=O)c2cc(C)c(O)c(C)c2)O[C@@](C/C=C/c2cccc(CNC(=O)c3ccc(Nc4ncccn4)cc3)c2)(C(=O)O)C[C@@H]1O [A-240]	227 nM	6.2 °C
CC(=O)N[C@H]1[C@H]([C@H](O)[C@H](O)CNC(=O)c2cc(C)c(O)c(C)c2)O[C@@](C/C=C/c2cccc(CNC(=O)c3cccc(Nc4nccs4)c3)c2)(C(=O)O)C[C@@H]1O [A-241]	7970 nM	5.3 °C
CC(=O)N[C@H]1[C@H]([C@H](O)[C@H](O)CNC(=O)c2cc(C)c(O)c(C)c2)O[C@@](C/C=C/c2cccc(CNC(=O)c3ccc4[nH]ccc4c3)c2)(C(=O)O)C[C@@H]1O [A-242]	502 nM	7.6 °C
CC(=O)N[C@H]1[C@H]([C@H](O)[C@H](O)CNC(=O)c2cc(C)c(O)c(C)c2)O[C@@](C/C=C/c2cccc(CNC(=O)c3ccc4[nH]c(C(C)O)nc4c3)c2)(C(=O)O)C[C@@H]1O (stereo partly drawn) [A-243]	255 nM	5.4 °C
CC(=O)N[C@H]1[C@H]([C@H](O)[C@H](O)CNC(=O)c2cc(C)c(O)c(C)c2)O[C@@](C/C=C/c2cccc(CNC(=O)C3(C)COC3)c2)(C(=O)O)C[C@@H]1O [A-244]	9560 nM	0.8 °C
CC(=O)N[C@H]1[C@H]([C@H](O)[C@H](O)CNC(=O)c2cc(C)c(O)c(C)c2)O[C@@](C/C=C/c2cccc(CNC(=O)c3cccc(NCc4nc(C)cs4)c3)c2)(C(=O)O)C[C@@H]1O [A-245]	9460 nM	1.2 °C
CC(=O)N[C@H]1[C@H]([C@H](O)[C@H](O)CNC(=O)c2cc(C)c(O)c(C)c2)O[C@@](C/C=C/c2cccc(CNC(=O)c3cccc(NCc4cncs4)c3)c2)(C(=O)O)C[C@@H]1O [A-246]	4000 nM	2.2 °C
CC(=O)N[C@H]1[C@H]([C@H](O)[C@H](O)CNC(=O)c2cc(C)c(O)c(C)c2)O[C@@](C/C=C/c2cccc(CNC(=O)C3CCC(Nc4cnccn4)CC3)c2)(C(=O)O)C[C@@H]1O (stereo partly drawn) [A-247]	353 nM	8.5 °C
CC(=O)N[C@H]1[C@H]([C@H](O)[C@H](O)CNC(=O)c2cc(C)c(O)c(C)c2)O[C@@](C/C=C/c2cccc(CNC(=O)c3ccc4[nH]c(CCO)cc4c3)c2)(C(=O)O)C[C@@H]1O [A-248]	682 nM	6.0 °C
CC(=O)N[C@H]1[C@H]([C@H](O)[C@H](O)CNC(=O)c2cc(C)c(O)c(C)c2)O[C@@](C/C=C/c2cccc(CNC(=O)c3ccc4[nH]c(C(C)(C)CO)cc4c3)c2)(C(=O)O)C[C@@H]1O [A-249]	224 nM	8.1 °C
CC(=O)N[C@H]1[C@H]([C@H](O)[C@H](O)CNC(=O)c2cc(C)c(O)c(C)c2)O[C@@](C/C=C/c2cccc(CNC(=O)c3ccc4[nH]c(-c5c[nH]c6ccccc56)cc4c3)c2)(C(=O)O)C[C@@H]1O [A-250]	3260 nM	8.4 °C
CC(=O)N[C@H]1[C@H]([C@H](O)[C@H](O)CNC(=O)c2cc(C)c(O)c(C)c2)O[C@@](C/C=C/c2cccc(CNC(=O)c3cccc(NC(C)(C)C)c3)c2)(C(=O)O)C[C@@H]1O [A-251]	9790 nM	4.3 °C
CC(=O)N[C@H]1[C@H]([C@H](O)[C@H](O)CNC(=O)c2cc(C)c(O)c(C)c2)O[C@@](C/C=C/c2cccc(CNC(=O)c3ccc4[nH]c(-c5cccn5-c5ncccn5)nc4c3)c2)(C(=O)O)C[C@@H]1O [A-252]	578 nM	7.6 °C
